Columns and labels:
Test in all cases: combination Emax (second highest fraction inhibited in the dose matrix, 72 h); higher = more inhibition; extreme values may be limits of the assay
A375 (Melanoma) = tested on: A375 (Melanoma)
Method in brief: (§1)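 Cell lines grown in DMEM/F12 or RPMI with 10% FBS were plated in 1536-well plates and held 24 hours at 37°C, 5% CO2 before 72 hours of exposure to two-drug dose matrices, with DMSO typically at 0.2%. CellTiter-Glo 2.0 luminescence gave viability, which was converted to inhibition. Vehicle wells were set to 0 and blank wells to 1. Combination Emax is the second-highest inhibition in the matrix, and Bliss excess is the observed combination effect minus the expected EA + EB − EA·EB, where EA and EB are the single-agent effects.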

[1] = tested on: BT-474 (Breast Carcinoma)
Method in brief: as §1

[2] = tested on: CAL-85-1 (Breast Carcinoma)
Method in brief: as §1

[3] = tested on: COR-L105 (Lung Adenocarcinoma)
Method in brief: as §1

[4] = tested on: GRANTA-519 (B-Cell Non-Hodgkin's Lymphoma)
Method in brief: as §1

[5] = tested on: HT-1197 (Bladder Carcinoma)
Method in brief: as §1

HT-144 (Melanoma) = tested on: HT-144 (Melanoma)
Method in brief: as §1

[6] = tested on: KNS-62 (Squamous Cell Lung Carcinoma)
Method in brief: as §1

MG-63 (Osteosarcoma) = tested on: MG-63 (Osteosarcoma)
Method in brief: as §1

[7] = tested on: NCI-H1648 (Lung Adenocarcinoma)
Method in brief: as §1

[8] = tested on: NCI-H2170 (Squamous Cell Lung Carcinoma)
Method in brief: as §1

NCI-H2452 (Mesothelioma) = tested on: NCI-H2452 (Mesothelioma)
Method in brief: as §1

[9] = tested on: OVKATE (Ovarian Carcinoma)
Method in brief: as §1

[10] = tested on: SBC-3 (Small Cell Lung Carcinoma)
Method in brief: as §1

[11] = tested on: SBC-5 (Small Cell Lung Carcinoma)
Method in brief: as §1

[12] = tested on: SCC90 (Head and Neck Carcinoma)
Method in brief: as §1

SK-N-DZ (Neuroblastoma) = tested on: SK-N-DZ (Neuroblastoma)
Method in brief: as §1

[13] = tested on: SNU-1 (Gastric Carcinoma)
Method in brief: as §1

[14] = tested on: SUP-HD1 (Hodgkin's Lymphoma)
Method in brief: as §1

[15] = tested on: SW1463 (Colorectal Carcinoma)
Method in brief: as §1

Structure (SMILES) | combination Emax (A375 (Melanoma)) | combination Emax [1] | combination Emax [2] | combination Emax [3] | combination Emax [4] | combination Emax [5] | combination Emax (HT-144 (Melanoma)) | combination Emax [6] | combination Emax (MG-63 (Osteosarcoma)) | combination Emax [7] | combination Emax [8] | combination Emax (NCI-H2452 (Mesothelioma)) | combination Emax [9] | combination Emax [10] | combination Emax [11] | combination Emax [12] | combination Emax (SK-N-DZ (Neuroblastoma)) | combination Emax [13] | combination Emax [14] | combination Emax [15]
CN(CCO)CC[C@H](CSc1ccccc1)Nc1ccc(S(=O)(=O)NC(=O)c2ccc(N3CCC([C@@H](O)c4ccccc4-c4ccc(Cl)cc4)CC3)cc2)cc1S(=O)(=O)C(F)(F)F [AZD4320] + C1CN(CCC1(C(=O)N[C@@H](CCO)C2=CC=C(C=C2)Cl)N)C3=NC=NC4=C3C=CN4 [Capivasertib] (first compound max 1 µM, 7x7, partner max 3 µM) | 0.0874 | 0.254 | 0.264 | 0.411 | 0.812 | 0.321 | 0.387 | 0.232 | 0.271 | 0.735 | 0.772 | 0.202 | 0.24 | 0.246 | 0.175 | 0.836 | 0.705 | 0.412 | 0.959 | 0.271
Cc1c2c(nn1C)CSCc1cc(n(C)n1)CSc1cc(c3ccccc3c1)OCCCc1c(C(=O)O)n(C)c3c-2c(Cl)ccc13 [AZD5991] + C[C@@H](Nc1cc(F)cc(F)c1)c1cc(C(=O)N(C)C)cc2c(=O)cc(N3CCOCC3)oc12 [AZD8186] (first compound max 1 µM, 7x7, partner max 3 µM) | 0.289 | 0.594 | 0.243 | 0.238 | 0.0698 | 0.252 | 0.901 | 0.17 | 0.357 | 0.844 | 0.275 | 0.357 | 0.353 | 0.376 | 0.845 | 0.903 | 0.232 | 0.652 | 0.659 | 0.188
Cn1cnc2c(F)c(Nc3ccc(Br)cc3Cl)c(C(=O)NOCCO)cc21 [Selumetinib] + CC(C)n1c(=O)n(C)c2cnc3cc(F)c(-c4ccc(OCCCN5CCCCC5)nc4)cc3c21 [AZD1390] (first compound max 10 µM, 7x7, partner max 0.3 µM) | 0.684 | 0.0709 | 0.44 | 0.402 | 0.095 | 0.152 | 0.734 | 0.439 | 0.305 | 0.512 | 0.0988 | 0.262 | 0.179 | 0.152 | 0.0866 | 0.774 | 0.239 | 0.384 | 0.224 | 0.702
NC1(C(=O)N[C@@H](CCO)c2ccc(Cl)cc2)CCN(c2ncnc3[nH]ccc23)CC1 [Capivasertib] + CC(=O)c1c(C)c2cnc(Nc3ccc(N4CCNCC4)cn3)nc2n(C2CCCC2)c1=O [Palbociclib] (first compound max 10 µM, 7x7, partner max 10 µM) | 0.368 | 0.332 | 0.203 | 0.362 | 0.227 | 0.551 | 0.809 | 0.599 | 0.712 | 0.567 | 0.527 | 0.474 | 0.265 | 0.67 | 0.353 | 0.965 | 0.618 | 0.621 | 0.569 | 0.502
COc1cccc(OCCCN)c1-c1cc(Nc2cnc(C#N)cn2)n[nH]1 [Prexasertib] + C=CCn1c(=O)c2cnc(Nc3ccc(N4CCN(C)CC4)cc3)nc2n1-c1cccc(C(C)(C)O)n1 [AZD1775] (first compound max 1 µM, partner max 1 µM) | 0.952 | 0.234 | 0.716 | 0.444 | 0.867 | 0.646 | 0.838 | 0.684 | 0.972 | 0.83 | 0.95 | 0.832 | 0.371 | 0.923 | 0.94 | 0.94 | 1 | 0.916 | 0.906 | 0.795
CN(C)CCCOc1ccc(-c2ccc3ncc4c(c3c2)n(C2CCOCC2)c(=O)n4C)cn1 [AZD0156] + CCN(CCO)CCCOc1ccc2c(Nc3cc(CC(=O)Nc4cccc(F)c4)[nH]n3)ncnc2c1 [AZD2811] (first compound max 1 µM, 7x7, partner max 1 µM) | 0.33 | 0.0605 | 0.104 | 0.167 | 0.364 | 0.203 | 0.232 | 0.141 | 0.285 | 0.214 | 0.656 | 0.221 | 0.127 | 0.409 | 0.313 | 0.231 | 0.391 | 0.434 | 0.48 | 0.108
